Reference: patent publication US4668630A, “Stabilized enzymatic composition” (Beckman Instruments, Inc., priority 1984, dated 1987)
Structures can show the parent of a compound that is named as a salt.

Test system: lactate dehydrogenase (LD)
Assay: LD activity of serial dilution samples on Roche Cobas UV clinical analyzer
Format: biochemical, human
Settings: Table II, 1-20 mg/ml KO2 CCO2 K in LD SEG
Protocol: Aliquots of this base solution were diluted as shown in Table I with a LD SEG solution devoid of KO2 CCO2 K. The LD activity of each of the serial dilution samples was measured on a Roche Cobas brand UV clinical analyzer and the results are set forth in Table II.

Compound: O=C(O)C(=O)O [KO2 CCO2 K, potassium oxalate]
- effect on LD activity (in words): inhibition of LD activity
